# Measurements as given in US8129417B2, “Substituted octahydrocyclopenta[C]pyrrol-4-amines as calcium channel blockers” (Abbott Laboratories, priority 2008, dated 2012).
# Target: human Cav2.2 (Homo sapiens, UniProt Q00975)
# Assay: Assessment of calcium channel activity using FLIPR (Ca2+ influx in IMR32 cells)
# Format: cell-based
# Conditions: 60 minute pre-incubation with compound, 2 μM nifedipine, depolarized with 80 mM KCl
# Summary of the method: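 IC50 came from sigmoidal non-linear regression of percent inhibition, relative to uninhibited activity, across compound concentrations. Calcium influx was measured by FLIPR in IMR32 cells plated at 1-1.2×10^5 cells/well and cultured 48 h at 37 °C.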
# Sequence of human Cav2.2 (Q00975 whole entry): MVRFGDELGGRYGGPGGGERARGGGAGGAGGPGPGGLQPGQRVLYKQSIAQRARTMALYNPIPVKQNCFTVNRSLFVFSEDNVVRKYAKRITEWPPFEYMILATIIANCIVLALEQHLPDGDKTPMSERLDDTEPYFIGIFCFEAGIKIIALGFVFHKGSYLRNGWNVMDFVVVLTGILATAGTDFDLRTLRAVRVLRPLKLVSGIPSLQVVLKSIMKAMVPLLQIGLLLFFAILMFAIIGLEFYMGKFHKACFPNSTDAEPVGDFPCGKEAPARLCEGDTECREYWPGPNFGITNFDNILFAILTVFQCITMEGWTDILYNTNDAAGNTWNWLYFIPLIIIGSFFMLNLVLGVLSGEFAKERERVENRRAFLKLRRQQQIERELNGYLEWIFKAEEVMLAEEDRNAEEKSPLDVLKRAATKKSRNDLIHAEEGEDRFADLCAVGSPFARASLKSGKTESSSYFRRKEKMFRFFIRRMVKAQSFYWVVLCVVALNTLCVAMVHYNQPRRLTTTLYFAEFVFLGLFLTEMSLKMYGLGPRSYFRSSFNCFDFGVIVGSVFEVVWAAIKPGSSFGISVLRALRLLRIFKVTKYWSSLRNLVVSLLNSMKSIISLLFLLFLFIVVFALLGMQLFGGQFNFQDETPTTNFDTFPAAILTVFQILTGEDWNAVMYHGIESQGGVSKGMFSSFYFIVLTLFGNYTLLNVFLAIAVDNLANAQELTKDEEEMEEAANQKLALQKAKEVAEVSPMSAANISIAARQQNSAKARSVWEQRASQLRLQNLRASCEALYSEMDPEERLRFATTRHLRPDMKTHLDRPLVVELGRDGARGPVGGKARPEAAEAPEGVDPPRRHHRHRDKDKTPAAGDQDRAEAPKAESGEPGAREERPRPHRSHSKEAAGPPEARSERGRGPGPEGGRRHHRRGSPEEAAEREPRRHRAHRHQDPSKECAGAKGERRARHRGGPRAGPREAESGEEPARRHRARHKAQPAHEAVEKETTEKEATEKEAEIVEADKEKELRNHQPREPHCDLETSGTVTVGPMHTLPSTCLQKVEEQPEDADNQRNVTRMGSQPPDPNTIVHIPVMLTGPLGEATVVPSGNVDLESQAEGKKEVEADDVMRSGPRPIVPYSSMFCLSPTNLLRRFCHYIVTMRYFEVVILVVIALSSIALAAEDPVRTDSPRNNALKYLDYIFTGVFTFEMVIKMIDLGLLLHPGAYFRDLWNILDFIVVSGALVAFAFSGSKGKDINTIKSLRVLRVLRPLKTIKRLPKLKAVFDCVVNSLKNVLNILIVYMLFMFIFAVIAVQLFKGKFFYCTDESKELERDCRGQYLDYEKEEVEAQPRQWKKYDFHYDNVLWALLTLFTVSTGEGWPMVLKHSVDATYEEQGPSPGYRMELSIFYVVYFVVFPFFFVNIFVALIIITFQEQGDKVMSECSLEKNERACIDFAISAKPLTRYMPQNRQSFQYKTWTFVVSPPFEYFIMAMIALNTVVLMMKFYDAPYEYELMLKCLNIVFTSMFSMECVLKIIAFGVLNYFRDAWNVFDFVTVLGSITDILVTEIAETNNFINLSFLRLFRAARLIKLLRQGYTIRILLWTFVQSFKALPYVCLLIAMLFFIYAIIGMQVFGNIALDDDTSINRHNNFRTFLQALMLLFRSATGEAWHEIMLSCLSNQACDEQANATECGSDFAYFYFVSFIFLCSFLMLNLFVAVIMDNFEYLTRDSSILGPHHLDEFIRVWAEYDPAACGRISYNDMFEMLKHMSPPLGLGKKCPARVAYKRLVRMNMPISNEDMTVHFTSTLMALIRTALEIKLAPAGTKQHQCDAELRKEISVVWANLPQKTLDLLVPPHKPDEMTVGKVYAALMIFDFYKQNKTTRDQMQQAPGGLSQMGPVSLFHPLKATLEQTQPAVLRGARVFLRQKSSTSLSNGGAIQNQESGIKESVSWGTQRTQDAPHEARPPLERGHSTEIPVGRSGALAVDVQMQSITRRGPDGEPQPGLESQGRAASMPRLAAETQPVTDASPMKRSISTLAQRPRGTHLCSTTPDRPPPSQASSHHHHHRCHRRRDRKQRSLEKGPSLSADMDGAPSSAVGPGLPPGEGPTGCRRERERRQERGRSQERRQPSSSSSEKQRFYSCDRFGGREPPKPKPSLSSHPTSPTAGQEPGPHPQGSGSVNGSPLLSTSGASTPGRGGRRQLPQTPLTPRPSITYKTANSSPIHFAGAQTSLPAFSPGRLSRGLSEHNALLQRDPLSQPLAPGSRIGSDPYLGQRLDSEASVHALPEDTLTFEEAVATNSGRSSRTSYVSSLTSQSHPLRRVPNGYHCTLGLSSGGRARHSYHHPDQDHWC
# Sequence of human Cav2.2 (P54289 25-946 partner limits assumed): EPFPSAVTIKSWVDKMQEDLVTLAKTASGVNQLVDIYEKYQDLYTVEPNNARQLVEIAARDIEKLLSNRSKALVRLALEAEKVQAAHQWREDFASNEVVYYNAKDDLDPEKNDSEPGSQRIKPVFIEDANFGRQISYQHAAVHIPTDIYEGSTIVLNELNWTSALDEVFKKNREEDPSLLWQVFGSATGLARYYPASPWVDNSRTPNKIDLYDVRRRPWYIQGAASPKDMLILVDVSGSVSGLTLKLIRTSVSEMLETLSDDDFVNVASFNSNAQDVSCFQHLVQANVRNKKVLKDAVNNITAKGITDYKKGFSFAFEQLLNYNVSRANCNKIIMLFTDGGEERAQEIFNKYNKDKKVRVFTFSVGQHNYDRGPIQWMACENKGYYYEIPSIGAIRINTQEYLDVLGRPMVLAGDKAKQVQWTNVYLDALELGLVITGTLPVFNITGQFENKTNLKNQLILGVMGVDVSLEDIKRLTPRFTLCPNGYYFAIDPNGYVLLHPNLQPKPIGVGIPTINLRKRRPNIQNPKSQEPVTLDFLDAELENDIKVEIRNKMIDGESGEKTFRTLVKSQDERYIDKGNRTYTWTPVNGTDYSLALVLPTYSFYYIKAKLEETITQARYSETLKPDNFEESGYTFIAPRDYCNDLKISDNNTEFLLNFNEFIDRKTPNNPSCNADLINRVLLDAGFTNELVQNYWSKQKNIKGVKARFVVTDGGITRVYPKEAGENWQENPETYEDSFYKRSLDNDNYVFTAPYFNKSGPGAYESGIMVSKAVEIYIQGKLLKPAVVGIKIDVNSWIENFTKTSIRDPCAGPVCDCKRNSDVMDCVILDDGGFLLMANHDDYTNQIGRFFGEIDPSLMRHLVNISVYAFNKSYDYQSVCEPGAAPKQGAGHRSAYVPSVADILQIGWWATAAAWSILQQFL
# Sequence of human Cav2.2 (P54289 947-1103 partner limits assumed): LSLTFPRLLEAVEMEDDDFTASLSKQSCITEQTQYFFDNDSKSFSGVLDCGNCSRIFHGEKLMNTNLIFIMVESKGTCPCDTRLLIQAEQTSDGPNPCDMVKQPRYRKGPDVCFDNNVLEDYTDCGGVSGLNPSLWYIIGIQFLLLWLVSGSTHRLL
# Sequence of human Cav2.2 (P54284 whole entry partner): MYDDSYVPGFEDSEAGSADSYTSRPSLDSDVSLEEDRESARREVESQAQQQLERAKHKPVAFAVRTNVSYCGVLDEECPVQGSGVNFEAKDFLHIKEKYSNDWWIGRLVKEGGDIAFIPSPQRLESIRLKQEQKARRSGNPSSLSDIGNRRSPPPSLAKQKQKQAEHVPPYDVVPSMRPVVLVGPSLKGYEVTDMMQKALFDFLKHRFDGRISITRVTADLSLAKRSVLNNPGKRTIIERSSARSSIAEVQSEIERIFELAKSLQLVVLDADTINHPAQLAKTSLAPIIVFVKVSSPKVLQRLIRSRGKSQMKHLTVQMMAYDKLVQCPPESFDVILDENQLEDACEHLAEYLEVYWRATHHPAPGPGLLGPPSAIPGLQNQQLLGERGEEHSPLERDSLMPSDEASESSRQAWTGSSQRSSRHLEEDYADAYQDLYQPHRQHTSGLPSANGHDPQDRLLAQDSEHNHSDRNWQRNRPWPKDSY
row,SMILES,IC50 [µM]
1,"O=C(N[C@H]1CC[C@H]2CN(S(=O)(=O)c3cccc(C(F)(F)F)c3)C[C@H]21)C(C1CCCCC1)C1CCCCC1 [Example 205, 2,2-dicyclohexyl-N-((3aS,4S,6aR)-2-{[3-(trifluoromethyl)phenyl]sulfonyl}octahydrocyclopenta[c]pyrrol-4-yl)acetamide]",3.4
2,"O=C(N[C@H]1CC[C@H]2CN(S(=O)(=O)CCc3ccccc3)C[C@H]21)C(C1CCCCC1)C1CCCCC1 [Example 206, 2,2-dicyclohexyl-N-{(3aS,4S,6aR)-2-[(2-phenylethyl)sulfonyl]octahydrocyclopenta[c]pyrrol-4-yl}acetamide]",> 100
3,"O=C(N[C@H]1CC[C@H]2CN(S(=O)(=O)CCc3cccc4ccccc34)C[C@H]21)C(C1CCCCC1)C1CCCCC1 [Example 207, 2,2-dicyclohexyl-N-((3aS,4S,6aR)-2-{[2-(1-naphthyl)ethyl]sulfonyl}octahydrocyclopenta[c]pyrrol-4-yl)acetamide]",> 100
4,"O=C(N[C@H]1CC[C@H]2CN(S(=O)(=O)Cc3cccc(C(F)(F)F)c3)C[C@H]21)C(C1CCCCC1)C1CCCCC1 [Example 208, 2,2-dicyclohexyl-N-((3aS,4S,6aR)-2-{[3-(trifluoromethyl)benzyl]sulfonyl}octahydrocyclopenta[c]pyrrol-4-yl)acetamide]",> 100
5,"O=C(N[C@H]1CC[C@H]2CN(S(=O)(=O)CCc3ccc(F)cc3)C[C@H]21)C(C1CCCCC1)C1CCCCC1 [Example 209, 2,2-dicyclohexyl-N-((3aS,4S,6aR)-2-{[2-(4-fluorophenyl)ethyl]sulfonyl}octahydrocyclopenta[c]pyrrol-4-yl)acetamide]",> 100
6,"CC(C)C[C@H](NC(=O)OC(C)(C)C)C(=O)N[C@H]1CC[C@@H]2CN(Cc3ccccc3)C[C@@H]21 [Example 221, tert-butyl(S)-1-((3aR,4S,6aS)-2-benzyloctahydrocyclopenta[c]pyrrol-4-ylamino)-4-methyl-1-oxopentan-2-ylcarbamate]",3.93
7,"CC(C)C[C@@H](C(=O)N[C@H]1CC[C@@H]2CN(Cc3ccccc3)C[C@@H]21)N(C)C(=O)OC(C)(C)C [Example 222, tert-butyl(S)-1-((3aR,4S,6aS)-2-benzyloctahydrocyclopenta[c]pyrrol-4-ylamino)-4-methyl-1-oxopentan-2-yl(methyl)carbamate]",2.05
8,"CCN(C(=O)OC(C)(C)C)[C@@H](CC(C)C)C(=O)N[C@H]1CC[C@@H]2CN(Cc3ccccc3)C[C@@H]21 [Example 223, tert-butyl(S)-1-((3aR,4S,6aS)-2-benzyloctahydrocyclopenta[c]pyrrol-4-ylamino)-4-methyl-1-oxopentan-2-yl(ethyl)carbamate]",2.06
9,"CC[C@H](C)[C@@H](C(=O)N[C@H]1CC[C@@H]2CN(Cc3ccccc3)C[C@@H]21)N(C)C(=O)OC(C)(C)C [Example 224, tert-butyl(2S,3S)-1-((3aR,4S,6aS)-2-benzyloctahydrocyclopenta[c]pyrrol-4-ylamino)-3-methyl-1-oxopentan-2-yl(methyl)carbamate]",4.64
10,"CC(C)(C)C[C@H](NC(=O)OC(C)(C)C)C(=O)N[C@H]1CC[C@@H]2CN(Cc3ccccc3)C[C@@H]21 [Example 226, tert-butyl(S)-1-((3aR,4S,6aS)-2-benzyloctahydrocyclopenta[c]pyrrol-4-ylamino)-4,4-dimethyl-1-oxopentan-2-ylcarbamate]",4.06
11,"CCCC[C@@H](C(=O)N[C@H]1CC[C@@H]2CN(Cc3ccccc3)C[C@@H]21)N(C)C(=O)OC(C)(C)C [Example 227, tert-butyl(S)-1-((3aR,4S,6aS)-2-benzyloctahydrocyclopenta[c]pyrrol-4-ylamino)-1-oxohexan-2-yl(methyl)carbamate]",3.17
12,"O=C(N[C@H]1CC[C@@H]2CN(Cc3ccccc3)C[C@@H]21)C(c1ccc(F)cc1)c1ccc(F)cc1 [Example 228, N-[(3aR,4S,6aS)-2-benzyloctahydrocyclopenta[c]pyrrol-4-yl]-2,2-bis(4-fluorophenyl)acetamide]",2.09
13,"CC(C)[C@@H](C(=O)N[C@@H]1CC[C@H]2CN(Cc3ccccc3)C[C@H]21)N(C)C(=O)OC(C)(C)C [Example 232, tert-butyl(S)-1-((3aS,4R,6aR)-2-benzyloctahydrocyclopenta[c]pyrrol-4-ylamino)-3-methyl-1-oxobutan-2-yl(methyl)carbamate]",3.6
14,"CC(C)(C)OC(=O)N[C@H](C(=O)N[C@@H]1CC[C@H]2CN(Cc3ccccc3)C[C@H]21)C(C)(C)C [Example 234, tert-butyl(S)-1-((3aS,4R,6aR)-2-benzyloctahydrocyclopenta[c]pyrrol-4-ylamino)-3,3-dimethyl-1-oxobutan-2-ylcarbamate]",7.4
15,"CC(C)C(C(=O)N[C@@H]1CC[C@H]2CN(Cc3ccccc3)C[C@H]21)C(C)C [Example 235, N-[(3aS,4R,6aR)-2-benzyloctahydrocyclopenta[c]pyrrol-4-yl]-2-isopropyl-3-methylbutanamide]",14.2
16,"O=C(N[C@H]1CC[C@H]2CN(Cc3cccc(C(F)(F)F)c3)C[C@H]21)C(O)C1CCCCC1 (stereo partly drawn) [Example 237, 2-cyclohexyl-2-hydroxy-N-{(3aS,4S,6aR)-2-[3-(trifluoromethyl)benzyl]octahydrocyclopenta[c]pyrrol-4-yl}acetamide]",1.88
17,"CCC[C@@H](C(=O)N[C@H]1CC[C@H]2CN(Cc3ccccc3)C[C@H]21)N(C)C(=O)OC(C)(C)C [Example 238, tert-butyl(S)-1-((3aS,4S,6aR)-2-benzyloctahydrocyclopenta[c]pyrrol-4-ylamino)-1-oxopentan-2-yl(methyl)carbamate]",5.73
18,"CCC[C@@H](C(=O)N[C@@H]1CC[C@@H]2CN(Cc3ccccc3)C[C@@H]21)N(C)C(=O)OC(C)(C)C [Example 240, tert-butyl(S)-1-((3aR,4R,6aS)-2-benzyloctahydrocyclopenta[c]pyrrol-4-ylamino)-1-oxopentan-2-yl(methyl)carbamate]",2.67
19,"CC(C)C[C@H](NS(C)(=O)=O)C(=O)N[C@H]1CC[C@@H]2CN(Cc3ccccc3)C[C@@H]21 [Example 242, N^1-[(3aR,4S,6aS)-2-benzyloctahydrocyclopenta[c]pyrrol-4-yl]-N^2-(methylsulfonyl)-L-leucinamide]",7.92
20,"CC(C)C[C@H](NCC(C)(C)C)C(=O)N[C@@H]1CC[C@H]2CN(Cc3ccccc3)C[C@H]21 [Example 245, N^1-[(3aS,4R,6aR)-2-benzyloctahydrocyclopenta[c]pyrrol-4-yl]-N^2-neopentyl-L-leucinamide]",8.08
21,"CN(C(=O)OC(C)(C)C)[C@@H](CC(C)(C)C)C(=O)N[C@H]1CC[C@@H]2CN(Cc3ccccc3)C[C@@H]21 [Example 247, tert-butyl(S)-1-((3aR,4S,6aS)-2-benzyloctahydrocyclopenta[c]pyrrol-4-ylamino)-4,4-dimethyl-1-oxopentan-2-yl(methyl)carbamate]",3.62
22,"CN(C(=O)OC(C)(C)C)[C@@H](CC(C)(C)C)C(=O)N[C@@H]1CC[C@H]2CN(Cc3ccccc3)C[C@H]21 [Example 248, tert-butyl(S)-1-((3aS,4R,6aR)-2-benzyloctahydrocyclopenta[c]pyrrol-4-ylamino)-4,4-dimethyl-1-oxopentan-2-yl(methyl)carbamate]",1.67
23,"CC(C)C[C@H](NCC(C)(C)C)C(=O)N[C@H]1CC[C@@H]2CN(S(=O)(=O)c3cccc(C(F)(F)F)c3)C[C@@H]21 [Example 252, N^2-neopentyl-N^1-((3aR,4S,6aS)-2-{[3-(trifluoromethyl)phenyl]sulfonyl}octahydrocyclopenta[c]pyrrol-4-yl)-L-leucinamide]",0.64
24,"CCC[C@H](NCC(C)(C)C)C(=O)N[C@H]1CC[C@@H]2CN(S(=O)(=O)c3cccc(C(F)(F)F)c3)C[C@@H]21 [Example 253, N^2-neopentyl-N^1-((3aR,4S,6aS)-2-{[3-(trifluoromethyl)phenyl]sulfonyl}octahydrocyclopenta[c]pyrrol-4-yl)-L-norvalinamide]",0.36
25,"CC(C)C[C@H](NCC(C)(C)C)C(=O)N[C@@H]1CC[C@H]2CN(S(=O)(=O)c3cccc(C(F)(F)F)c3)C[C@H]21 [Example 254, N^2-neopentyl-N^1-((3aS,4R,6aR)-2-{[3-(trifluoromethyl)phenyl]sulfonyl}octahydrocyclopenta[c]pyrrol-4-yl)-L-leucinamide]",0.72
26,"CCC[C@H](NCC(C)(C)C)C(=O)N[C@@H]1CC[C@H]2CN(S(=O)(=O)c3cccc(C(F)(F)F)c3)C[C@H]21 [Example 255, N^2-neopentyl-N^1-((3aS,4R,6aR)-2-{[3-(trifluoromethyl)phenyl]sulfonyl}octahydrocyclopenta[c]pyrrol-4-yl)-L-norvalinamide]",0.55
27,"CC(C)C[C@H](NCC(C)(C)C)C(=O)N[C@H]1CC[C@@H]2CN(S(=O)(=O)c3ccc(C(F)(F)F)cc3)C[C@@H]21 [Example 256, N^2-neopentyl-N^1-((3aR,4S,6aS)-2-{[4-(trifluoromethyl)phenyl]sulfonyl}octahydrocyclopenta[c]pyrrol-4-yl)-L-leucinamide]",1.38

# Same assay, conditions: IMR-32, @ 10 μM, 3 minute pre-incubation (*), read-out: percent inhibition
row,SMILES,inhibition at 10 µM [%]
1,"CC[C@H](C(=O)N[C@@H]1CC[C@@H]2CN([C@@H](C)c3ccccc3)C[C@@H]21)c1ccccc1 [Example 210, (2S)-2-phenyl-N-{(3aR,4R,6aS)-2-[(1S)-1-phenylethyl]octahydrocyclopenta[c]pyrrol-4-yl}butanamide]",76
2,"CC[C@H](C(=O)N[C@@H]1CC[C@H]2CN([C@@H](C)c3ccccc3)C[C@H]21)c1ccccc1 [Example 213, (2S)-2-phenyl-N-{(3aS,4R,6aR)-2-[(1S)-1-phenylethyl]octahydrocyclopenta[c]pyrrol-4-yl}butanamide]",60
3,"CC(C)C(C(=O)N[C@H]1CC[C@@H]2CN(C(=O)c3ccccc3)C[C@@H]21)c1ccccc1 (stereo partly drawn) [Example 218, N-[(3aR,4S,6aS)-2-benzoyloctahydrocyclopenta[c]pyrrol-4-yl]-3-methyl-2-phenylbutanamide]",56
4,"CC(C)N(C(=O)N[C@H]1CC[C@@H]2CN(Cc3ccccc3)C[C@@H]21)c1ccccc1 [Example 219, N′-[(3aR,4S,6aS)-2-benzyloctahydrocyclopenta[c]pyrrol-4-yl]-N-isopropyl-N-phenylurea]",63
